Results from the NIST ThermoML archive (doi:10.1021/je3011634).
± gives the expanded uncertainty stated by the source.

Conditions: 101.33 kPa, Liquid; for viscosity: Capillary tube (Ostwald / Ubbelohde) method; for mass density: Vibrating tube method

viscosity (293.15 K) [mPa·s] | mass density (293.15 K) [kg/m3] | viscosity (303.15 K) [mPa·s] | mass density (303.15 K) [kg/m3] | viscosity (313.15 K) [mPa·s] | mass density (313.15 K) [kg/m3] | viscosity (323.15 K) [mPa·s] | mass density (323.15 K) [kg/m3] | viscosity (333.15 K) [mPa·s] | mass density (333.15 K) [kg/m3] | SMILES
2.362 ± 0.1 | 785.35 ± 0.17 | 1.762 ± 0.1 | 776.86 ± 0.17 | 1.2 ± 0.1 | 768.07 ± 0.17 | 0.938 ± 0.1 | 758.89 ± 0.18 | 0.604 ± 0.1 | 749.25 ± 0.18 | CC(C)O [propan-2-ol]
2.204 ± 0.1 | 803.57 ± 0.15 | 1.513 ± 0.1 | 795.53 ± 0.15 | 1.018 ± 0.1 | 787.35 ± 0.15 | 0.79 ± 0.1 | 778.98 ± 0.15 | – | 770.38 ± 0.16 | CCCO [propan-1-ol]
40.46 ± 0.27 | 987.65 ± 0.23 | 23.98 ± 0.18 | 979.65 ± 0.23 | 15.31 ± 0.14 | 971.61 ± 0.23 | 10.22 ± 0.12 | 963.52 ± 0.23 | 6.962 ± 0.11 | 955.38 ± 0.23 | NCCCO [3-amino-1-propanol]
4.087 ± 0.1 | 801.82 ± 0.24 | 2.877 ± 0.1 | 794.06 ± 0.24 | 2.091 ± 0.1 | 786.12 ± 0.24 | 1.576 ± 0.1 | 777.94 ± 0.24 | 1.125 ± 0.1 | 769.46 ± 0.24 | CC(C)CO [2-methyl-1-propanol]
